Measurements as given in patent EP0311107A2, “Anti-HIV active 3'-fluoro-purine-2',3'-dideoxyribosides” (priority 1987, dated 1989).
Like-named read-outs stand apart in the source and are kept apart here. Marks after values point to notes of the source that are not given here.

Key:
[1] = molecular target: T1, beef intestine adenosine deaminase (ADA) (Bos taurus, UniProt P56658); conditions: data taken from Balzarini, J. et al (1987c); cited from earlier work
T1 construct: Kinetic properties of beef intestine adenosine deaminase for 2,6-diaminopurine 2′,3′-dideoxynucleoside analogues; purchased Boehringer Mannheim, Mannheim, West Germany; host or cells: beef intestine (tissue-derived enzyme)
T1 sequence (P56658 1-363): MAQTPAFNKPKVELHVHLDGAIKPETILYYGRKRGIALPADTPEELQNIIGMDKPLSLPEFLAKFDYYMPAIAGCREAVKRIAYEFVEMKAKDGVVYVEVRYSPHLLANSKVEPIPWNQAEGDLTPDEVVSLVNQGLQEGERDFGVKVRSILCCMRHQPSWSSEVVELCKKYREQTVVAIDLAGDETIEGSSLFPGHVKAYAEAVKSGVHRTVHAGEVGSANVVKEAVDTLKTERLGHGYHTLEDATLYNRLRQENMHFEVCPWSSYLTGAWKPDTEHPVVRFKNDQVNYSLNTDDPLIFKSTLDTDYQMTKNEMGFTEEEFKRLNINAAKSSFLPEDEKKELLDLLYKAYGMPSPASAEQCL

[2] = in vitro; assay type: cell-based; conditions: human, mt4 cells
Experimental: (§1) For the determination of the cytopathic effect of HIV in human T-lymphocyte MT4 cells, MT4 cells, subcultured one day before the start of the experiment, were adjusted at 5 x 10⁵ cells/ml and infected with HIV (HTLV-IIIB) at 100 CCID₅₀/ml. Then, 100 µl of the infected cell suspension was brought into wells of a microtiter tray containing 100 µl of various dilutions of the test compounds. After 5 days incubation at 37°C, the number of viable cells was recorded microscopically in a hematocytometer by trypan blue exclusion.
Its anti-HIV activity is also higher than that found for its corresponding 2,6-diaminopurine derivative FddDAPR.

[3] = test system: MT4; assay: Cytostatic effect against MT4 cells; assay type: cell-based; conditions: Homo sapiens, read-out: Inhibitory dose-50 MT4
[4] = test system: HIV (HTLV-IIIB); assay: HIV-induced cytopathogenicity in MT4 cells (viable cell count by trypan blue exclusion after 5 days); assay type: cell-based; conditions: for EC50: Human immunodeficiency virus 1, IIIB; for HIV-induced cytopathogenicity in MT4 cells S.I.: selectivity index, ratio of 50% cytotoxic dose to 50% antivirally effective dose, 7200 min; for anti-HIV activity: HIV-induced cytopathogenicity in MT4 cells, result in words
Experimental: as §1
(§2) A series of novel 2,6-diaminopurine and guanine 2′,3′-dideoxynucleoside analogues in which the 2′,3′-dideoxyribose moiety is substituted by a 3′-fluoro group, or replaced by arabinose or 2′-deoxyxylose were evaluated for their effect on the transformation of C3H mouse embryo cells by Moloney murine sarcoma virus (MSV) (Table 1) and the cytopathogenicity induced by HIV in human T4 lymphocyte MT4 cells (Table 1, Fig. 2).

[5] = test system: T-lymphocyte CEM; assay: Cytostatic effect against CEM cells; assay type: cell-based; conditions: Homo sapiens, CCRF-CEM, read-out: Inhibitory dose-50 CEM
Experimental: (§3) The cultivation of Raji, Molt/4F, CEM, H9, HUT-78 and MT4 cells has been described in Balzarini, J, et al, Biochem. Biophys. Res. Commun. 136:64-71 (1986b) and Pauwels, R. et al, J. Virol. Methods, 16:171-185 (1987).
(§4) The cytostatic effects of the compounds listed in Table 1 were examined against several human B-lymphoblast Raji, T-lymphoblast Molt/4F and T-lymphocyte CEM, H9 and MT4 cell lines (Table 2). […] In no case is the ID₅₀ of the compounds for tumor cell proliferation lower than 60 µM. FddGuo is slightly more cytostatic than FddDAPR (ID₅₀ : 190 to 228 µM, and 233 to >1000 µM, respectively). XylodDAPR and araDAPR are devoid of any anti-cellular activity, even when tested at a concentration as high as 1000 µM.

[6] = test system: B-lymphoblast Raji; assay: Cytostatic effect against Raji cells; assay type: cell-based; conditions: Homo sapiens, read-out: Inhibitory dose-50 Raji
Experimental: as §3, §4

[7] = molecular target: T1, beef intestine adenosine deaminase (ADA); assay: Substrate kinetics for deamination by adenosine deaminase; assay type: biochemical
Excerpt: All four ddDAPR analogues were examined for their susceptibility to deamination by beef intestine adenosine de aminase (ADA).

[8] = test system: T-lymphocyte CEM; assay: Cytostatic effect against CEM cells; assay type: cell-based; conditions: Homo sapiens, read-out: Inhibitory dose-50 CEM
[9] = test system: T-lymphoblast Molt/4F; assay: Cytostatic effect against Molt/4F cells; assay type: cell-based; conditions: Homo sapiens, read-out: Inhibitory dose-50 Molt/4F
Excerpt: The cultivation of Raji, Molt/4F, CEM, H9, HUT-78 and MT4 cells has been described in Balzarini, J, et al, Biochem. Biophys. Res. Commun.
The cytostatic effects of the compounds listed in Table 1 were examined against several human B-lymphoblast Raji, T-lymphoblast Molt/4F and T-lymphocyte CEM, H9 and MT4 cell lines (Table 2).

[10] = test system: MT4; assay: Cytostatic effect against MT4 cells; assay type: cell-based; conditions: Homo sapiens, read-out: Inhibitory dose-50 MT4; remark: listed apart in the source
Experimental: as §3, §4

[11] = test system: HIV; assay: Inhibition of HIV antigen expression in infected H9 or HUT-78 cells (indirect immunofluorescence, laser flow cytofluorography); assay type: cell-based; conditions: Human immunodeficiency virus 1, HuT78; H9 and HUT-78 cells; data not shown; read-out: concentration achieving 50% inhibition of HIV-induced antigen expression
Excerpt: The inhibitory effects of the test compounds on HIV antigen expression in infected H9 or HUT-78 cells were determined at day 8 and 14, respectively after infection, by indirect immunofluorescence and laser flow cytofluorography using a polyclonal antibody as probe, as previously described (Pauwels, R. et al, (1987)).
To confirm our anti-HIV data obtained in the MT4 cell model, we also evaluated the 3′-fluorinated ddDAPR derivatives in two other human T4 lymphocyte cell lines (H9 and HUT-78) for their inhibitory effect on viral antigen expression (data not shown). In these experiments, FddDAPR achieves 50% inhibition of HIV-induced antigen expression at a concentration range of 0.05 - 1.0 µM. This concentration range is lower than that required to inhibit HIV-induced cytopathogenicity in MT4 cells.

[12] = test system: Moloney murine sarcoma virus (MSV); assay: MSV-induced C3H cell transformation; assay type: cell-based; conditions: for EC50: Moloney murine sarcoma virus, C3H; for MSV-induced C3H cell transformation S.I.: selectivity index, ratio of 50% cytotoxic dose to 50% antivirally effective dose
Experimental: For transformation of C3H mouse embryo cells by Molo ney murine sarcoma virus (MSV), confluent monolayers of C3H cells in 1 ml wells of Tissue Culture Cluster plates were infected wiht 150 foci-forming units of MSV during 90 min, whereafter medium was replaced by 1 ml fresh culture medium containing different concentrations of test compound. After 6-7 days incubation at 37°C, transformation of the cell cultures was monitored microscopically.
as §2

[13] = in vitro; assay type: cell-based; conditions: mouse, c3h cells
[14] = test system: H9; assay: Cytostatic effect against H9 cells; assay type: cell-based; conditions: Homo sapiens, read-out: Inhibitory dose-50 H9
Experimental: as §3, §4

[15] = test system: human B-lymphoblast Raji, T-lymphoblast Molt/4F and T-lymphocyte CEM, H9 and MT4 cell lines; assay: Cytostatic effects, summary over the human B- and T-cell lines; assay type: cell-based; conditions: range over the cell lines, read-out: ID₅₀ for tumor cell proliferation
Experimental: as §3, §4

[16] = MT4, 120 h, MT4 cells, 5 days at 37°C, read-out: HIV-induced cytopathogenicity in MT4 cells ED₅₀
[17] = presence of DCF (10 µM preincubation)
[18] = C3H cells, 6-7 days at 37°C, read-out: MSV-induced C3H cell transformation ED₅₀

SMILES	CC50 at 120 h [2] [µM]	EC50 [4, 16] [µM]	HIV-induced cytopathogenicity in MT4 cells S.I. [4]	IC50 [5] [µM]	IC50 [6] [µM]	Vmax [7] [µmole/mg proten/min]	IC50 ([9]; Molt/4F) [µM]	IC50 [10] [µM]	EC50 [12, 18] [µM]	MSV-induced C3H cell transformation S.I. [12]	CC50 [13] [µM]	IC50 [14] [µM]	further results
Nc1ncnc2c1ncn2[C@@H]1O[C@H](CO)[C@@H](O)[C@H]1O [Ado, adenosine]	–	–	–	–	–	–	–	–	–	–	–	–	Vmax [1]: 287^a µmole/mg proten/min
Nc1nc(N)c2ncn([C@H]3C[C@H](F)[C@@H](CO)O3)c2n1 [FddDAPR, 3′-fluoro-2,6-diaminopurine 2′,3′-dideoxyriboside]	360	4.5	80	233	753	31	425	337	28	> 15	> 400	377	IC50 ([3]; MT4, presence of DCF (10 µM preincubation)): 520 µM; IC50 ([3]; MT4, without DCF (Table 4)): 469 µM; EC50 ([4]; MT4, presence of 10 µM DCF (2′-deoxycoformycin), read-out: Effective dose-50 HIV-induced cytopathogenicity in MT4 cells): 39 µM; EC50 ([4]; MT4, without DCF (Table 3), read-out: Effective dose-50 HIV-induced cytopathogenicity in MT4 cells): 4.5 µM; IC50 [8, 17]: 739 µM; IC50 ([8]; without DCF (Table 4)): 241 µM; IC50 [9, 17]: 865 µM; IC50 ([9]; without DCF (Table 4)): 353 µM; EC50 [11]: 0.05 to 1 µM; EC50 ([12]; presence of 10 µM DCF (2′-deoxycoformycin), read-out: Effective dose-50 MSV-induced C3H cell transformation): 87 µM; EC50 ([12]; without DCF (Table 3), read-out: Effective dose-50 MSV-induced C3H cell transformation): 31 µM
Nc1nc2c(ncn2[C@H]2C[C@H](F)[C@@H](CO)O2)c(=O)[nH]1 [FddGuo, 3′-fluoro-2′,3′-dideoxyguanosine]	231	2.4	96	119	107	–	228	197	12	> 23	> 400	194	IC50 [15]: 190 to 228 µM
Nc1nc(N)c2ncn([C@H]3C[C@@H](O)[C@@H](CO)O3)c2n1 [XylodDAPR]	> 625	> 125	–	> 1000	> 1000	3.7	> 1000	> 1000	> 400	–	> 400	> 1000	anti-HIV activity [4]: devoid of any anti-HIV activity
Nc1nc(N)c2ncn([C@@H]3O[C@H](CO)[C@@H](O)[C@@H]3O)c2n1 [araDAPR, 9-β-D-arabinofuranosyl 2,6-diaminopurine]	> 625	> 125	–	> 1000	> 1000	5.9	> 1000	> 1000	> 400	–	> 400	> 1000	anti-HIV activity [4]: devoid of any anti-HIV activity; Km [7]: 83 µM
Nc1ncnc2c1ncn2[C@H]1CC[C@@H](CO)O1 [ddAdo, 2′,3′-dideoxyadenosine]	–	–	–	–	–	–	–	–	–	–	–	–	Vmax [1]: 262^a µmole/mg proten/min
Nc1nc2c(ncn2[C@H]2CC[C@@H](CO)O2)c(=O)[nH]1 [ddGuo, 2′,3′-Dideoxyguanosine]	486	7.6	64	142	903	–	380	942	72	> 5.5	> 400	531	–
